Patent US20080161422A1, “Methods and Compositions for the Treatment of Lipid-Associated Disorders” (priority 2005, published 2008)
“Also recorded” adds a separate entry of the source.

Assays:
mouse niacin receptor = biological target: T1, mouse niacin receptor (Mus musculus, UniProt Q9EP66); assay: MAP kinase ELISA (phosphoERK1/2) in CHO cells expressing the mouse niacin receptor; assay type: cell-based; details: compared to niacin
T1 construct: expressed in transfected cells; host or cells: CHO cells
T1 sequence (Q9EP66 whole entry): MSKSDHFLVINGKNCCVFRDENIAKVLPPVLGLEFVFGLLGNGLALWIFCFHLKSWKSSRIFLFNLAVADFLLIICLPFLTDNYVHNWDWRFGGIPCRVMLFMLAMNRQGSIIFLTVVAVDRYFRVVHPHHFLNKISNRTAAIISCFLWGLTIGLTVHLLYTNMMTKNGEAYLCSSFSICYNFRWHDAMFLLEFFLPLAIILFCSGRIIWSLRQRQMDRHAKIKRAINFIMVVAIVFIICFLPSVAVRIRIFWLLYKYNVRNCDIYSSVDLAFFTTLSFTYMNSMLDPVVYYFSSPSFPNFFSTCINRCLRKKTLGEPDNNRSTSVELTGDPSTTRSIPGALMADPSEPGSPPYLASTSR
Protocol: A kit from Biosource (phosphoERK1/2 pT185pY187 ELISA, Catalog #KHO-0091) was used according to the following protocol.
The cells were serum-starved overnight prior to stimulating the cells with compound.
A. Compounds were dissolved in DMSO. […] PMA (100 ng/ml) was used as a positive control. B. Cell dishes were taken out of the incubator and placed on a rocker set to gentle rocking (set speed at 4). Compound was carefully added and cells were returned to the incubator to incubate for 5 min. At 4.5 min, the medium was aspirated from dishes in the order that the compound was added. Then 2 ml cold PBS was added and excess medium was removed by gentle swirling. The PBS was aspirated and 1 ml of PBS was added (1 ml for confluent 6 cm dish).
A. Cells were scraped from dish with a rubber policeman and transferred to a microfuge tube, then centrifuged at 3000 rpm at 4° C. for 5 minutes. B. The PBS was aspirated and cell pellet lysed in Cell Extraction Buffer (0.1% SDS) (250-300 μl for confluent 6 cm dish) for 30 min. on ice with vortexing at 10 min intervals. C. The mixture was then centrifuged at max speed (16,000×G) for 15 min. at 4° C. D. Clarified lysates were transferred to new microfuge tubes and protein concentration measure. […]
A. All reagents were at room temperature and mixed before use. […] The number of 8 well strips needed for assay was determined and bag was sealed and returned to 4° C. […]

niacin receptor [1] = biological target: T2, niacin receptor (Homo sapiens, UniProt Q8TDS4); assay: Binding to the niacin receptor
T2 sequence (Q8TDS4 whole entry): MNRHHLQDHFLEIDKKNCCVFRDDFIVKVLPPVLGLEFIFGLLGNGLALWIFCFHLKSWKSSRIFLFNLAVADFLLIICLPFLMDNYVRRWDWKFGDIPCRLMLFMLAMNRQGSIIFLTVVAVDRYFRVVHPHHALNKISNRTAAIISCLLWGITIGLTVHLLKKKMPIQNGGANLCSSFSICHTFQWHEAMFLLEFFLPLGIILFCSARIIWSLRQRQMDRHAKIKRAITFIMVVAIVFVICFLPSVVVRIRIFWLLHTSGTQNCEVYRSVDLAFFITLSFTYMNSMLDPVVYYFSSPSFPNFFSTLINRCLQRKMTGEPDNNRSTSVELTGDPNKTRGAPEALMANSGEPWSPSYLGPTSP

niacin receptor [2] = biological target: T2, niacin receptor; assay: MAP kinase ELISA (phosphoERK1/2) in CHO cells expressing the human niacin receptor; details: compared to niacin
[3] = system: women suffering from painful menstrual cramps; details: 80 women; 100 mg niacin twice daily, then every 2 to 3 hours during heavy cramps; cited from earlier work

SMILES | MAP kinase activation (mouse niacin receptor) | binding to the niacin receptor (niacin receptor [1]) | MAP kinase activation (niacin receptor [2]) | subjects experiencing significant relief [3]
c1cncc(-c2nn[nH]n2)c1 [Compound 12] | closely matches the profile of niacin; also recorded: behaves like niacin in a MAP kinase assay | binds to the niacin receptor | closely matches the profile of niacin; also recorded: behaves like niacin in a MAP kinase assay | 
O=C(O)c1cccnc1 [niacin, nicotinic acid] |  |  |  | About 90%
